Measured values: patent publication US20080085879A1, “METHODS OF TREATING ESTROGEN-RESPONSIVE CONDITIONS BY ORPHAN NUCLEAR RECEPTOR ACTIVATION” (University of Pittsburgh - Of the Commonwealth System of …, priority 2006, published 2008)
“Also recorded” adds a separate entry of the source. Values belong to the compound of their own block, whether it stands above or below them.

Key:
[1] = tested on: estrogen sulfotransferase (EST); test: EST mRNA expression in mouse tissues (Northern blot, real-time PCR) after agonist treatment; type: in vivo; conditions: for EST mRNA expression in liver: wild-type mice, compared to control (DMSO)
Description: Transgenic mice, having a mixed background of C57BL/6J and 129/SvImJ, were created expressing activated LXRa in the liver under the control of the fatty acid binding protein (FABP) promoter. (FIG. 1) EST levels in liver cells of the transgenic mice were compared to wild-type mice using Northern blot analysis and real-time PCR, as described in Gong, H. et al. Mol. Endocrinol. 20:279-290 (2006) and Zhou, J. et al. J Biol Chem. 281: 15013-15020 (2006), respectively.
Wild-type mice were treated with LXR agonists TO1317 (T0901317) or 22(R)-hydroxycholesterol (FIG. 1a), and EST levels were compared to DMSO-treated control mice as described above.
LXRα and LXRβ double knockout (LXR DKO) mice were created as described in Peet, D. J. et al., Cell 93:693-704 (1998).

[2] = tested on: uterine epithelial proliferation; test: Uterine estrogen response: epithelial proliferation by BrdU labeling in ovariectomized mice; type: in vivo, mouse
[3] = tested on: estrogen-responsive uterine genes (Pgr, c-fos, Igf-1, Txnip); test: Estrogen-responsive uterine gene expression by real-time PCR in ovariectomized mice; type: in vivo, mouse
uterus = test: Uterotropic bioassay; type: in vivo, mouse; conditions: wild type female mice, E2 5 μg/kg s.c. daily for 3 d
Description: Ovariectomized wild type and VP-LXRα transgenic females were subjected to uterine estrogen response measurements that include epithelial proliferation by BrdU labeling and estrogen responsive gene expression by real-time PCR. Five-week old virgin females were subjected to ovariectomies. Seven days after the surgery, mice were given a single s.c. injection of 17β-estradiol (E2) (25 μg/mouse). 18 h after the E2 injection, mice were given a single i.p. injection of bromodeoxyuridine (BrdU) (60 mg/kg) and sacrificed 2 h after. One uterine horn was harvested for histology and measurement of cell proliferation by BrdU immunostaining (Xie, W., et al., Mol. Endocrinol. 11: 1766-1781 (1997)) and the other was harvested for RNA extraction and gene expression analysis by real-time PCR. In the uterotropic bioassay, 3-week-old virgin female mice received daily s.c. injections of vehicle or E2 (5 μg/kg) for 3 d. Mice were then sacrificed 24 h after the last E2 dose and the uteri were dissected, weighed, and photographed. When necessary, mice were subjected to daily treatment of TO1317 (50 mg/kg, i.p. injection) starting 3 d prior to the E2 treatment and continued until the completion of the experiments.

CYP3A (PXR target gene) = test: CYP3A expression in mouse liver (Northern blot); type: in vivo
LXRα = target: T1, LXRα (Mus musculus, UniProt Q9Z0Y9); test: mEst promoter luciferase reporter assay in HepG2 cells co-transfected with LXRα; type: cell-based; conditions: TO1317 10 μM 24 h
T1 construct: expressed in transfected cells; host or cells: HepG2
T1 sequence (Q9Z0Y9 1-445): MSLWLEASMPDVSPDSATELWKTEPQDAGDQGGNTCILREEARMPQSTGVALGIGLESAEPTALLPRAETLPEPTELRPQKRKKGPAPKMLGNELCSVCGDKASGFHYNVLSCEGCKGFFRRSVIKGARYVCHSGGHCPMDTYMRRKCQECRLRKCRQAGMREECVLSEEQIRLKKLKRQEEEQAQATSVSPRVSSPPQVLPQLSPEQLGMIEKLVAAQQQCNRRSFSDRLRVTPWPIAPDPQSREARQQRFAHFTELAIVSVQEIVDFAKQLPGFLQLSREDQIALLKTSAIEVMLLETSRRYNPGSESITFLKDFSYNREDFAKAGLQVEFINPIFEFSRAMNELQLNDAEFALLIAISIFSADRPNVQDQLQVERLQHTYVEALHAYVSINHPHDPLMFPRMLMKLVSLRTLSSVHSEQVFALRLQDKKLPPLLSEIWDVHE
Source text: (§1) The 4.2-kb (−4164 bp to +46 bp) 5′ regulatory sequences of the mEst gene were cloned by PCR using a template of mEst-containing bacterial artificial chromosome (BAC) clone (ID RP24-571N6) from the Children's Hospital Oakland Research Institute BACPAC Resource Center (Oakland, Calif.). Deletion mutants were generated by PCR-mediated mutagenesis. HepG2 cells were transfected with the reporter constructs and LXRα expression vector in 48-well plates as previously described . Gong, H. et al., Mol. Endocrinol. 20:279-290 (2006) When necessary, cells were treated with TO1317 (10 μM) for 24 h prior to luciferase assay. The transfection efficiency was normalized against the β-gal activities from a co-transfected CMX-β gal vector. The hydrodynamic liver transfection was performed as we previously described. Zhou, J. et al. J Biol Chem. 281: 15013-15020 (2006). EMSA were performed using in vitro transcribed and translated proteins as described previously. Saini, S. P. et al., Hepatology 41:497-505 (2005)

mouse LXRα = target: T2, mouse LXRα (Mus musculus, UniProt Q9Z0Y9); test: CHIP assay of HA-LXRα recruitment onto the Est promoter in transfected mouse liver; type: in vivo; conditions: wild type mouse liver, TO1317 50 mg/kg i.p.
T2 construct: expressed in transfected cells; host or cells: liver of wild type mice (hydrodynamic transfection in vivo)
T2 sequence (Q9Z0Y9 1-445): T1 sequence (Q9Z0Y9 1-445)
Source text: Zhou, J. et al. J Biol Chem. 281: 15013-15020 (2006). […] Zhou, J. et al. J Biol Chem. 281: 15013-15020 (2006).

[4] = tested on: mEst 2.1-kb natural promoter; test: Hydrodynamic liver transfection of Est promoter reporter; type: in vivo
Source text: as §1

[5] = MCF-7/VEGF breast tumor xenograft in ovariectomized nude mice; type: in vivo, mouse
Source text: (§2) Ovariectomized nude mice were purchased from Taconic (Germantown, N.Y.). ER-positive and estrogen responsive breast cancer MCF-7 cells were used. The MCF-7 cells were MCF-7/VEGF cells that overexpress the vascular endothelial growth factor (VEGF), rather than parent MCF-7 cells. […] Guo, P. et al., Cancer Res. 63:4684-4691 (2003).
(§3) MCF-7 breast tumors were established in the mammary fat pads of ovariectomized female nude mice as described previously. Briefly, 1×10^7 of MCF-7/VEGF cells were inoculated into the mammary fat pads of 8-week old ovariectomized female nude mice that were implanted with E2 pellets (0.72 mg/60-day release) or placebo pellets (Innovative Research of America, Sarasota, Fla.). The E2-treated mice were randomly divided into two groups, with one group receiving daily treatment of TO1317 (15 mg/kg by gavage) and the other receiving vehicle. The volumes of the tumors were measured using a caliper every five days. Mice were labeled with BrdU 30 min prior to sacrificing. The serum concentrations of E2 were measured using the ACTIVE® ESTRADIOL EIA kit (Diagnostic Systems Laboratories, Webster, Tex.).
(§4) Breast tumors were established as described in Example 4, using MCF-7/VEGF cells.

MCF-7/VEGF cells = test: as above; type: in vivo, mouse
Source text: as §2, §3, §4

EST = EST mRNA expression in primary human hepatocytes (RT-PCR); type: cell-based; conditions: compared to DMSO control
Description: Expression of EST MRNA was measured as described above in human hepatocytes and in human breast cancer line MCF7.

[6] = ovariectomized wild type female mice

Structure (SMILES): CC(C)CC[C@@H](O)[C@@H](C)[C@H]1CC[C@H]2[C@@H]3CC=C4C[C@@H](O)CC[C@]4(C)[C@H]3CC[C@]12C [22(R)-hydroxycholesterol]
- EST mRNA expression in liver [1]: up-regulated

Structure (SMILES): C[C@]12CC[C@@H]3c4ccc(O)cc4CC[C@H]3[C@@H]1CC[C@@H]2O [E2, 17β-estradiol]
- uterine BrdU labeling ([2]; ovariectomized wild type mice, E2 25 μg/mouse s.c.): increased
- mRNA expression of Pgr, c-fos and Igf-1 in uterus [3, 6]: induced
- mRNA expression of Txnip in uterus [3, 6]: suppressed
- uterotropic effect (uterine enlargement, water imbibition) (uterus): typical uterine enlargement

Structure (SMILES): CC(=O)[C@H]1[C@H](C#N)C[C@H]2[C@@H]3CC=C4C[C@@H](O)CC[C@]4(C)[C@H]3CC[C@@]21C [PCN, pregnenolone-16alpha-carbonitrile]
- CYP3A expression (CYP3A (PXR target gene)): induced

- EST levels in LXR DKO mice ([1]; LXRα and LXRβ double knockout mice, compared with control mice): no increase
- EST expression in testis ([1]; testis of male mice): not observed
- EST mRNA expression in liver [1]: up-regulated
- activation of mutant variant of tk-Est/DR-4 reporter (LXRα; LXRα): not
- activation of tk-Est/DR-4 reporter (LXRα; LXRα): activated
- activation of 4.2-kb mEst promoter luciferase reporter (LXRα; wild type LXRα): activated
- recruitment of HA-LXRα onto the Est promoter (CHIP) (mouse LXRα): resulted in the recruitment
Structure (SMILES): O=S(=O)(c1ccccc1)N(CC(F)(F)F)c1ccc(C(O)(C(F)(F)F)C(F)(F)F)cc1 [TO1317]
- TO1317 effect on the E2 response (BrdU labeling) in EST null mice ([2]; EST null mice): abolished
- E2 effect on uterine BrdU labeling ([2]; ovariectomized wild type mice, TO1317 50 mg/kg i.p. daily pre-treatment, E2 25 μg/mouse s.c.): compromised
- basal proliferation (BrdU labeling) ([2]; treatment alone, in the absence of E2): little effect
- TO1317 effect on E2-responsive gene expression in EST null mice ([3]; EST null mice, uterus): abolished
- E2 effects on the expression of E2-responsive genes (Pgr, c-fos, Igf-1, Txnip) ([3]; TO1317-treated ovariectomized wild type mice, uterus): abolished
- activation of 2.1-kb natural Est promoter transfected into mouse liver [4]: activated
- hepatic EST expression in nude mice ([5]; TO1317-treated vs mock-treated nude mice (data not shown)): significantly induced
- circulating E2 levels ([5]; tumor bearing mice, TO1317 15 mg/kg by gavage daily): decreased
- tumor cell BrdU labeling index (MCF-7/VEGF cells; E2-induced tumors, TO1317 15 mg/kg by gavage daily): decreased
- E2-enhanced tumor growth (tumor volume) (MCF-7/VEGF cells; E2 pellets, TO1317 15 mg/kg by gavage daily vs vehicle, 15 mg/kg): inhibited; also recorded: significantly attenuated

- EST expression in PXR−/− mice ([1]; PXR−/− mice, liver): still induced
- EST mRNA induction in human hepatocytes (EST): increased induction
Structure (SMILES): C[C@@H]1C[C@H]2[C@@H]3CCC4=CC(=O)C=C[C@]4(C)[C@@]3(F)[C@@H](O)C[C@]2(C)[C@@]1(O)C(=O)CO [dexamethasone]
